Values of other authors, collected in patent US20060243184A1, “Use of waste nitrogen from air separation units for blanketing cargo and ballast tanks” (Chevron U.S.A. Inc., priority 2003, published 2006).

Conditions: @ 20° C.
For `CCS` [Ethylmercaptan], the “Water Solubility” value is listed as 1.3%. In the case of `CS` [Methylmercaptan], the “Water Solubility” value is given as 2.4%. In the case of `CCCS` [Propylmercaptan], the “Water Solubility” value is given as “Low”.
